# In patent US20250099557A1, “ANTIBIOTIC PHARMACEUTICAL COMPOSITION CAPABLE OF SUBCUTANEOUS ADMINISTRATION” (SHANGHAI BAO PHARMACEUTICALS CO., LTD., priority 2021, published 2025):
# Legend:
# HAase = biological target: T1, HAase (Homo sapiens, UniProt P38567); experiment: Compatibility study of HAase and antibiotic in solution: HAase activity; format: biochemical; conditions: 15 min room temperature; for Final concentration of HAase (units/ml) 150: HAase added to 150 units/ml; for Final concentration of HAase (units/ml) 500: HAase added to 500 units/ml; for Final concentration of HAase (units/ml) 2000: HAase added to 2000 units/ml; for Final concentration of HAase (units/ml) 6000: HAase added to 6000 units/ml
# T1 construct: made in house
# T1 sequence (P38567 36-482): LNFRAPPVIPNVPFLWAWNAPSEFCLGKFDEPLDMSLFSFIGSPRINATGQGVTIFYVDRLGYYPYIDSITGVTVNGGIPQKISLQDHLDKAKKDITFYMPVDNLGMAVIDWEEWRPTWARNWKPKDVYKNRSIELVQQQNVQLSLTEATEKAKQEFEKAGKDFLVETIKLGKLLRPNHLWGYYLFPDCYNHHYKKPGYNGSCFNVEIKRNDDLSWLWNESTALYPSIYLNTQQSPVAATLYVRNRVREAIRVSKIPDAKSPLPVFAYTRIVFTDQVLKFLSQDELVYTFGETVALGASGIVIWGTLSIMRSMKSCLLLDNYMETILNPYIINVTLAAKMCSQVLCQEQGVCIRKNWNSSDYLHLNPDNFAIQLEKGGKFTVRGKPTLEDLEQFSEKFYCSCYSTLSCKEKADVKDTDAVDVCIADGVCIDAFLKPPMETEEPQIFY
# Procedure: “HAase activity refers to the ability of HAase to catalytically cleave hyaluronic acid. The Chinese Pharmacopoeia provides a method for determining the HAase activity, indirectly by measuring the amount of remaining higher-molecular-weight hyaluronic acid substrate after the enzyme is allowed to catalytically cleave hyaluronic acid at 37° C. for 30 min. A standard reference solution can be used in the assay to determine the relative activity (in units) of any HAase. In-vitro assays for the determination of HAase are known in the art. Exemplary assays include micro-turbidimetric assay described below, which indirectly measures the cleavage of hyaluronic acid by HAase by detecting an insoluble precipitate formed when uncleaved hyaluronic acid binds to serum albumin. The reference standard can be used, for example, to generate a standard curve, so as to determine the activity of the tested HAase in units.
# The compatibility of HAase and an antibiotic was studied by preparing a solution comprising the two substances. A dry Meropenem power for injection was dissolved in physiological saline to give a concentration of 5 mg/ml and 50 mg/ml, and then HAase was added to give a final concentration of 150, 500, 2000, and 6000 units/ml respectively. After preparation, the solution was left to stand at room temperature for 15 min. The appearance of the solution was observed, and the concentration of HAase was determined.
# The compatibility of HAase and an antibiotic was studied by preparing a solution comprising the two substances. A dry Ceftriaxone sodium power for injection was dissolved in physiological saline to give a concentration of 50 mg/ml and 250 mg/ml, and then HAase was added to give a final concentration of 150, 500, 2000, and 6000 units/ml respectively. After preparation, the solution was left to stand at room temperature for 15 min. The appearance of the solution was observed, and the concentration of HAase was determined.
# The compatibility of HAase and an antibiotic was studied by preparing a solution comprising the two substances. A dry Azithromycin power for injection was dissolved in physiological saline to give a concentration of 10 mg/ml and 100 mg/ml, and then HAase was added to give a final concentration of 150, 500, 2000, and 6000 units/ml respectively. After preparation, the solution was left to stand at room temperature for 15 min. The appearance of the solution was observed, and the concentration of HAase was determined.
# The compatibility of HAase and an antibiotic was studied by preparing a solution comprising the two substances. A dry Cefradine powder for injection was dissolved in physiological saline to give a concentration of 50 mg/ml and 250 mg/ml, and then HAase was added to give a final concentration of 150, 500, 2000, and 6000 units/ml respectively. After preparation, the solution was left to stand at room temperature for 15 min. The appearance of the solution was observed, and the concentration of HAase was determined.
# The compatibility of HAase and an antibiotic was studied by preparing a solution comprising the two substances. A dry Teicoplanin powder for injection was dissolved in physiological saline to give a concentration of 10 mg/ml and 70 mg/ml, and then HAase was added to give a final concentration of 150, 500, 2000, and 6000 units/ml respectively. After preparation, the solution was left to stand at room temperature for 15 min. The appearance of the solution was observed, and the concentration of HAase was determined.
# The compatibility of HAase and an antibiotic was studied by preparing a solution comprising the two substances. A dry Ceftazidime powder for injection was dissolved in physiological saline to give a concentration of 20 mg/ml and 200 mg/ml, and then HAase was added to give a final concentration of 150, 500, 2000, and 6000 units/ml respectively. After preparation, the solution was left to stand at room temperature for 15 min.
# intestinal flora = experiment: Effects of administration routes on the diversity of intestinal flora in mice (16S rDNA sequencing, OTU); format: in vivo; conditions: C57BL/6 mice, feces
# Description: 12 SPF grade C57BL/6 mice were used for each antibiotic mode, and divided into two groups, each having 6 mice. The two groups include an oral administration group, and a subcutaneous administration group combined with recombinant human HAase. A blank control group including 6 mice was also set. The mice in the oral administration group were given the model antibiotic solution by oral gavage for five consecutive days. The mice in the subcutaneous administration group combined with recombinant human HAase were given the same dose of model antibiotic as that in the oral administration group by subcutaneous administration for five consecutive days. The feces of mice in each group were collected on the 1 st, 2nd, 3rd, 4th, 5th, 6th, 8th, 10th and 14th days after five consecutive days of administration, and stored at −80° C., for detecting the microbial diversity later. The fecal samples of each group were amplified and sequenced by 16S rDNA sequencing. After DNA extraction, PCR amplification and gene sequencing, the changes of intestinal bacterial diversity in each group of mice were analyzed. The relative species diversity of the test group was calculated, with the OUT value of the blank control group in each day as a reference, as shown in Table 33.
# [1] = antibiotic 50 mg/ml in physiological saline
# [2] = antibiotic 250 mg/ml in physiological saline
smiles,measurement,setting,value
CC1=C(C(=O)O)N2C(=O)[C@@H](NC(=O)[C@H](N)C3=CCC=CC3)[C@H]2SC1 [Cefradine],Final concentration of HAase (units/ml) 150,HAase; [1],162 units/ml
same,Final concentration of HAase (units/ml) 500,HAase; [1],492 units/ml
same,Final concentration of HAase (units/ml) 2000,HAase; [1],2009 units/ml
same,Final concentration of HAase (units/ml) 6000,HAase; [1],6126 units/ml
same,Final concentration of HAase (units/ml) 150,HAase; [2],161 units/ml
same,Final concentration of HAase (units/ml) 500,HAase; [2],482 units/ml
same,Final concentration of HAase (units/ml) 2000,HAase; [2],2080 units/ml
same,Final concentration of HAase (units/ml) 6000,HAase; [2],5797 units/ml
same,interference with the activity of HAase,HAase; antibiotic and HAase in physiological saline,does not interfere with the activity of HAase
same,Relative abundance of OUT (operational taxonomic units),"intestinal flora; in combination with recombinant human HAase for subcutaneous administration, five consecutive days, D1 after administration",35.5%
same,Relative abundance of OUT (operational taxonomic units),"intestinal flora; in combination with recombinant human HAase for subcutaneous administration, five consecutive days, D2",37.2%
same,Relative abundance of OUT (operational taxonomic units),"intestinal flora; in combination with recombinant human HAase for subcutaneous administration, five consecutive days, D3",36.3%
same,Relative abundance of OUT (operational taxonomic units),"intestinal flora; in combination with recombinant human HAase for subcutaneous administration, five consecutive days, D4",36.2%
same,Relative abundance of OUT (operational taxonomic units),"intestinal flora; in combination with recombinant human HAase for subcutaneous administration, five consecutive days, D5",36.2%
same,Relative abundance of OUT (operational taxonomic units),"intestinal flora; in combination with recombinant human HAase for subcutaneous administration, five consecutive days, D6",37.1%
same,Relative abundance of OUT (operational taxonomic units),"intestinal flora; in combination with recombinant human HAase for subcutaneous administration, five consecutive days, D8",42.1%
same,Relative abundance of OUT (operational taxonomic units),"intestinal flora; in combination with recombinant human HAase for subcutaneous administration, five consecutive days, D10",42.9%
same,Relative abundance of OUT (operational taxonomic units),"intestinal flora; in combination with recombinant human HAase for subcutaneous administration, five consecutive days, D14",48.7%
same,Relative abundance of OUT (operational taxonomic units),"intestinal flora; oral administration for five consecutive days, D1 after administration",24.4%
same,Relative abundance of OUT (operational taxonomic units),"intestinal flora; oral administration for five consecutive days, D2",23.6%
same,Relative abundance of OUT (operational taxonomic units),"intestinal flora; oral administration for five consecutive days, D3",20.4%
same,Relative abundance of OUT (operational taxonomic units),"intestinal flora; oral administration for five consecutive days, D4",22.6%
same,Relative abundance of OUT (operational taxonomic units),"intestinal flora; oral administration for five consecutive days, D5",20.7%
same,Relative abundance of OUT (operational taxonomic units),"intestinal flora; oral administration for five consecutive days, D6",24.3%
same,Relative abundance of OUT (operational taxonomic units),"intestinal flora; oral administration for five consecutive days, D8",25.8%
same,Relative abundance of OUT (operational taxonomic units),"intestinal flora; oral administration for five consecutive days, D10",28.6%
same,Relative abundance of OUT (operational taxonomic units),"intestinal flora; oral administration for five consecutive days, D14",31.9%
